Where two headings read alike, the source gives them in different places. *1 amine or outer side, *2 acyl side, *3 side chain or, on linkers, in order; H or OH if unused. Where a SMILES comes first, the peptide text is derived from it. Bridges are numbered along the chain shown (N, C = ends). [ ]: non-standard residue; d: D form. N(4-F-Bzl)Gly = O=C(O)CNCc1ccc(F)cc1; X1 = O=C(CCC[*:2])[*:1]
Tests used:
[1] = Trial 000015 Part 2: pharmacokinetics after multiple intranasal administrations; format: in vivo, human; settings: for Cmax / Tmax / AUC(0-t) / half-life: female, human, plasma
Description: The trial was divided into three parts:
Part 2. Ascending multiple i.n. doses.

early postpartum women = settings: in vivo
Method: Healthy women received 5 or 20 μg merotocin i.v. shortly after delivery (Part A) or 20 μg merotocin i.v. when lactation was established (Part B). Milk was expressed by pumping at 15 minutes, 3 hours, 6 hours, 9 hours, 12 hours, 18 hours and 18-24 hours after start of infusion and analysed for merotocin and metabolites.

[2] = in vivo
healthy women [3] = settings: in vivo
Method: The first clinical trial in human, Trial 000015, was a double-blind, placebo-controlled, single dose, within dose panel randomised, sequential dose escalating study. The trial was divided into three parts:
Part 1. Ascending single i.n. doses. There were 7 dose panels with 8 healthy women in each dose panel (6 active, 2 placebo). The doses investigated were 5 μg, 15 μg, 50 μg, 100 μg, 200 μg, 300 μg, and 400 μg.
Seven dose levels were investigated: 5, 15, 50, 100, 200, 300, and 400 μg. Each of the doses were administered as a nasal spray based on one or multiple puffs per nostril.
Part 3. Open-label cross-over single i.n. and single i.v. dose in 6 healthy women. The doses investigated were 20 μg as an i.v. infusion over 25 minutes, and 400 μg as a single i.n. dose.
The intranasal dose was 400 μg (4×140 μl, the same as the highest dose in Part 1), the i.v. dose was 20 μg infused in 2 mL over 25 minutes.

healthy women [4] = tested on: healthy women;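 on headache: subjects reporting: adverse events in healthy women given intranasal doses every 3 h over 45 h (16 doses per panel), each panel with 6 active and 2 placebo subjects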;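 on intensity of all TEAEs: adverse events in healthy women given intranasal doses every 3 h over 45 h (16 doses per panel), each panel with 6 active and 2 placebo subjects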;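 on withdrawal due to nausea: adverse events in healthy women given intranasal doses every 3 h over 45 h (16 doses per panel), each panel with 6 active and 2 placebo subjects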
Method: Part 2. Ascending multiple i.n. doses. There were 3 dose panels with 8 healthy women in each dose panel (6 active, 2 placebo). The dosing schedule was every 3 hours for 45 hours, i.e. 16 doses in all. The doses investigated were 50 μg, 200 μg, and 400 μg.
Three dose levels were investigated: the first dose was 50 μg, the second dose was 200 μg (intermediate between the first dose and the maximal tolerated dose in Part 1), and the highest dose was 400 μg (the maximal dose in Part 1).

[5] = 16 i.n. administrations over 48 hours

CC[C@H](C)[C@@H]1NC(=O)[C@H](Cc2ccc(O)cc2)NC(=O)CCCSC[C@@H](C(=O)N(CC(=O)N[C@@H](CC(C)C)C(=O)NCC(N)=O)Cc2ccc(F)cc2)NC(=O)[C@H](CC(N)=O)NC(=O)[C@H](CCC(N)=O)NC1=O [merotocin, Glycinamide, N-(4-mercapto-1-oxobutyl)-L-tyrosyl-L-isoleucyl-Lglutaminyl-L-asparaginyl-L-cysteinyl-N-[(4-fluorophenyl)methyl]glycyl-L-leucyl-, cyclic (1→5)-thioether] (YIQNC[N(4-F-Bzl)Gly]LG-NH2; linker N-5 via X1)
accumulation [1, 5]: no indications of relevant accumulation | pre-dose concentrations [1, 5]: falling constantly below the LLOQ | Cmax ([1]; inhaled or intranasal, 50 ug, multiple i.n. doses every 3 hours, 50 μg, Dose No. 1, read-out: Cmax Geom. mean (% CV)): 0.0275 ng/mL | Cmax ([1]; inhaled or intranasal, 50 ug, multiple i.n. doses every 3 hours, 50 μg, Dose No. 1, read-out: Cmax Median): 0.0307 ng/mL | Tmax ([1]; inhaled or intranasal, 50 ug, multiple i.n. doses every 3 hours, 50 μg, Dose No. 1, read-out: tmax Mean (SD)): 13.8 min | Cmax ([1]; inhaled or intranasal, 50 ug, multiple i.n. doses every 3 hours, 50 μg, Dose No. 2, read-out: Cmax Median): 0.0302 ng/mL | Cmax ([1]; inhaled or intranasal, 50 ug, multiple i.n. doses every 3 hours, 50 μg, Dose No. 16, read-out: Cmax Median): 0.0266 ng/mL | Tmax ([1]; inhaled or intranasal, 50 ug, multiple i.n. doses every 3 hours, 50 μg, Dose No. 16, read-out: tmax Mean (SD)): 20.4 min | AUC(0-t) ([1]; inhaled or intranasal, 200 ug, multiple i.n. doses every 3 hours, 200 μg, Dose No. 1, read-out: AUCt Geom. mean (% CV)): 0.0804 ng·h/mL | AUC(0-t) ([1]; inhaled or intranasal, 200 ug, multiple i.n. doses every 3 hours, 200 μg, Dose No. 1, read-out: AUCt Median): 0.0876 ng·h/mL | Cmax ([1]; inhaled or intranasal, 200 ug, multiple i.n. doses every 3 hours, 200 μg, Dose No. 1, read-out: Cmax Geom. mean (% CV)): 0.124 ng/mL | Cmax ([1]; inhaled or intranasal, 200 ug, multiple i.n. doses every 3 hours, 200 μg, Dose No. 1, read-out: Cmax Median): 0.125 ng/mL | Tmax ([1]; inhaled or intranasal, 200 ug, multiple i.n. doses every 3 hours, 200 μg, Dose No. 1, read-out: tmax Mean (SD)): 10.8 min | AUC(0-t) ([1]; inhaled or intranasal, 200 ug, multiple i.n. doses every 3 hours, 200 μg, Dose No. 2, read-out: AUCt Geom. mean (% CV)): 0.0752 ng·h/mL | AUC(0-t) ([1]; inhaled or intranasal, 200 ug, multiple i.n. doses every 3 hours, 200 μg, Dose No. 2, read-out: AUCt Median): 0.0706 ng·h/mL | Cmax ([1]; inhaled or intranasal, 200 ug, multiple i.n. doses every 3 hours, 200 μg, Dose No. 2, read-out: Cmax Geom. mean (% CV)): 0.115 ng/mL | Cmax ([1]; inhaled or intranasal, 200 ug, multiple i.n. doses every 3 hours, 200 μg, Dose No. 2, read-out: Cmax Median): 0.118 ng/mL | half-life ([1]; inhaled or intranasal, 200 ug, multiple i.n. doses every 3 hours, 200 μg, Dose No. 2, read-out: t1/2 Harmonic mean (converted)): 26.4 min | Tmax ([1]; inhaled or intranasal, 200 ug, multiple i.n. doses every 3 hours, 200 μg, Dose No. 2, read-out: tmax Mean (SD)): 16.8 min | AUC(0-t) ([1]; inhaled or intranasal, 200 ug, multiple i.n. doses every 3 hours, 200 μg, Dose No. 16, read-out: AUCt Geom. mean (% CV)): 0.16 ng·h/mL | AUC(0-t) ([1]; inhaled or intranasal, 200 ug, multiple i.n. doses every 3 hours, 200 μg, Dose No. 16, read-out: AUCt Median): 0.147 ng·h/mL | Cmax ([1]; inhaled or intranasal, 200 ug, multiple i.n. doses every 3 hours, 200 μg, Dose No. 16, read-out: Cmax Geom. mean (% CV)): 0.218 ng/mL | Cmax ([1]; inhaled or intranasal, 200 ug, multiple i.n. doses every 3 hours, 200 μg, Dose No. 16, read-out: Cmax Median): 0.225 ng/mL | half-life ([1]; inhaled or intranasal, 200 ug, multiple i.n. doses every 3 hours, 200 μg, Dose No. 16, read-out: t1/2 Harmonic mean (converted)): 30.6 min | Tmax ([1]; inhaled or intranasal, 200 ug, multiple i.n. doses every 3 hours, 200 μg, Dose No. 16, read-out: tmax Mean (SD)): 18.6 min | AUC(0-t) ([1]; inhaled or intranasal, 400 ug, multiple i.n. doses every 3 hours, 400 μg, Dose No. 1, read-out: AUCt Geom. mean (% CV)): 0.0771 ng·h/mL | AUC(0-t) ([1]; inhaled or intranasal, 400 ug, multiple i.n. doses every 3 hours, 400 μg, Dose No. 1, read-out: AUCt Median): 0.0702 ng·h/mL | Cmax ([1]; inhaled or intranasal, 400 ug, multiple i.n. doses every 3 hours, 400 μg, Dose No. 1, read-out: Cmax Geom. mean (% CV)): 0.156 ng/mL | Cmax ([1]; inhaled or intranasal, 400 ug, multiple i.n. doses every 3 hours, 400 μg, Dose No. 1, read-out: Cmax Median): 0.136 ng/mL | half-life ([1]; inhaled or intranasal, 400 ug, multiple i.n. doses every 3 hours, 400 μg, Dose No. 1, read-out: t1/2 Harmonic mean (converted)): 21 min | AUC(0-t) ([1]; inhaled or intranasal, 400 ug, multiple i.n. doses every 3 hours, 400 μg, Dose No. 2, read-out: AUCt Geom. mean (% CV)): 0.0888 ng·h/mL | AUC(0-t) ([1]; inhaled or intranasal, 400 ug, multiple i.n. doses every 3 hours, 400 μg, Dose No. 2, read-out: AUCt Median): 0.142 ng·h/mL | Cmax ([1]; inhaled or intranasal, 400 ug, multiple i.n. doses every 3 hours, 400 μg, Dose No. 2, read-out: Cmax Geom. mean (% CV)): 0.169 ng/mL | Cmax ([1]; inhaled or intranasal, 400 ug, multiple i.n. doses every 3 hours, 400 μg, Dose No. 2, read-out: Cmax Median): 0.195 ng/mL | half-life ([1]; inhaled or intranasal, 400 ug, multiple i.n. doses every 3 hours, 400 μg, Dose No. 2, read-out: t1/2 Harmonic mean (converted)): 23.4 min | Tmax ([1]; inhaled or intranasal, 400 ug, multiple i.n. doses every 3 hours, 400 μg, Dose No. 2, read-out: tmax Mean (SD)): 9.6 min | Cmax ([1]; inhaled or intranasal, 400 ug, multiple i.n. doses every 3 hours, 400 μg, Dose No. 16, read-out: Cmax Geom. mean (% CV)): 0.18 ng/mL | Cmax ([1]; inhaled or intranasal, 400 ug, multiple i.n. doses every 3 hours, 400 μg, Dose No. 16, read-out: Cmax Median): 0.192 ng/mL | half-life ([1]; inhaled or intranasal, 400 ug, multiple i.n. doses every 3 hours, 400 μg, Dose No. 16, read-out: t1/2 Median (converted)): 39 min | Tmax ([1]; inhaled or intranasal, 400 ug, multiple i.n. doses every 3 hours, 400 μg, Dose No. 16, read-out: tmax Mean (SD)): 18 min | Tmax ([1]; other: intranasal, 50 ug, multiple i.n. doses every 3 hours, 50 μg, Dose No. 2, read-out: tmax Mean (SD)): 20.4 min | Cmax ([1]; other: intranasal, 50 ug, multiple i.n. doses every 3 hours, 50 μg, Dose No. 16, read-out: Cmax Geom. mean (% CV)): 0.0236 ng/mL | Tmax ([1]; other: intranasal, 400 ug, multiple i.n. doses every 3 hours, 400 μg, Dose No. 1, read-out: tmax Mean (SD)): 6.6 min | AUC(0-t) ([1]; other: intranasal, 400 ug, multiple i.n. doses every 3 hours, 400 μg, Dose No. 16, read-out: AUCt Geom. mean (% CV)): 0.112 ng·h/mL | AUC(0-t) ([1]; other: intranasal, 400 ug, multiple i.n. doses every 3 hours, 400 μg, Dose No. 16, read-out: AUCt Median): 0.112 ng·h/mL | half-life ([1]; other: intranasal, 400 ug, multiple i.n. doses every 3 hours, 400 μg, Dose No. 16, read-out: t1/2 Harmonic mean (converted)): 33.6 min | half-life ([1]; other: intranasal, multiple i.n. doses, all dose groups, read-out: t1/2): 25 to 35 min | Tmax ([1]; other: intranasal, multiple i.n. doses, all dose groups, read-out: tmax): 12 to 15 min | Any AE: number of AEs, E (early postpartum women): 16 | Any AE: subjects with AE, n (%) (early postpartum women): 8 (44) | Back pain: number of AEs, E (early postpartum women): 1 | Back pain: subjects with AE, n (%) (early postpartum women): 1 (6) | Breast engorgement: number of AEs, E (early postpartum women): 3 | Breast engorgement: subjects with AE, n (%) (early postpartum women): 3 (17) | Headache: number of AEs, E (early postpartum women): 3 | Headache: subjects with AE, n (%) (early postpartum women): 2 (11) | Lactation puerperal increased: number of AEs, E (early postpartum women): 1 | Lactation puerperal increased: subjects with AE, n (%) (early postpartum women): 1 (6) | Muscle spasms: number of AEs, E (early postpartum women): 1 | Muscle spasms: subjects with AE, n (%) (early postpartum women): 1 (6) | Uterine spasm: number of AEs, E (early postpartum women): 7 | Uterine spasm: subjects with AE, n (%) (early postpartum women): 6 (33) | safety (key results) (early postpartum women): No safety | severe or serious AE (early postpartum women; iv): No severe or serious AE occurred | metabolites of merotocin in plasma or urine samples [2]: No metabolites of merotocin could be detected | Dry mouth: subjects reporting (healthy women [3]): 3 subjects | intensity of all adverse events (healthy women [3]): mild | safety (key results) (healthy women [3]): No safety | withdrawal due to nausea (healthy women [4]; 400 μg group, multiple doses): One subject was withdrawn | dry mouth: subjects reporting (healthy women [4]; 200 and 400 μg groups, multiple doses): 5 subjects | intensity of all TEAEs (healthy women [4]; after multiple dose administrations): mild | headache: subjects reporting (healthy women [4]; all treatment groups, multiple doses): 4 subjects

Source: patent publication US20220313774A1, “INTRANASAL ADMINISTRATION OF MEROTOCIN FOR IMPROVING LACTATION” (FERRING B.V., priority 2019, published 2022)
